Measured values reported in patent US9388389B2, “JFH-1 based HCV cell culture systems for NS5A of genotypes 1-7” (Hvidovre Hospital, priority 2009, dated 2016).
Values joined by “and” are separate entries in the source; they are usually repeats but may differ in a detail not shown here. Equal entries are not always repeated.

What was measured:
Huh7.5 cells [1] = test: Infectivity titers (FFU) in supernatant after RNA transfection or viral passage; format: cell-based; conditions: for Transfection Log(FFU/mL) / 1st passage Log(FFU/mL): Table 1b; for Transfection Log(FFU/mL): maximum infectivity titer after transfection, Core-NS2 and NS5A of same genotype; for 1st passage Log(FFU/mL): maximum infectivity titer, two values separated by slash = two independent passages; for Peak titers Transfection Log (FFUs/mL) / Peak titers Viral passage Log (FFUs/mL): Table 2; for Peak titers Transfection Log (FFUs/mL): maximum infectivity titer observed in transfection experiments; for Peak titers Viral passage Log (FFUs/mL): maximum infectivity titer observed in viral passage experiments
Procedure: (§1) To determine the efficiency of the developed system, HCV RNA titers are determined in IU/ml (international units/ml) with Taq-Man Real-Time-PCR and infectious titers are determined with a focus-forming units (FFU) method: in this method, infectivity titers are determined by infection of cell culture replicates with serial dilutions of virus containing supernatants and, following immuno-stainings for HCV antigens, counting of HCV-antigen positive cell foci. Alternatively the infectious titers are determined as 50% tissue culture infectious dose.
(§2) Culturing of Huh7.5 cells was done as described by Gottwein et al. 2007. One day prior to transfection or infection, naïve Huh7.5 cells were plated at 4×10^5/well in 6-well plates. In vitro transcription was carried out for 2 hours with T7 RNA polymerase (Promega) on 5 μg plasmid linearized with XbaI and treated with Mung Bean Nuclease (New England Biolabs, Beverly, Mass., USA) to yield the exact HCV 3′ end. For transfection, 2.5 μg of unpurified RNA transcripts were incubated with 5 μL Lipofectamine2000™ (Invitrogen) in 500 μL Opti-MEM (Invitrogen) for 20 min at room temperature. RNA-Lipofectamine2000™ transfection complexes were left on cells for 16-24 hours before washing. For infection, virus-containing supernatant was left on cells for 6-24 hours. Supernatants collected during experiments were sterile filtered and stored at −80° C.
(§3) Anti-Core immunostaining was done with mouse anti-HCV Core protein monoclonal antibody (B2) (Anogen Mississauga, Ontario, Canada) as primary antibody and Alexa Fluor 594 goat anti-mouse IgG (H+L) (Invitrogen) as secondary antibody. HCV RNA titers were determined by a TaqMan™ real-time PCR assay. Infectivity titers were determined as follows: 6×10^3 naïve Huh7.5 cells were plated per well in a poly-D-lysine coated 96-well plate (Nunc) one day before inoculation with three replicates of individual 10-fold dilutions of cell culture supernatants. Inocula were left on cells for 48 hours and cells were fixed using ice could methanol. After washing, blocking buffer (1% BSA, 0.2% skim milk) was added for 20 min and endogenous peroxidases were inhibited by application of H2O2 for 5 min. Primary antibody (anti-NS3, clone H26, Abcam, Cambridge, UK) diluted 1:1000 was left on cells for 3-4 days. Secondary antibody was ECL anti-mouse IgG HRP-linked whole antibody (GE Healthcare Amersham, Brondby, Denmark). Staining was developed using DAB substrate kit (DAKO, Glostrup, Denmark). The number of focus-forming units (FFU) per well were counted manually (dilutions with 5-100 FFU counted) or automatically. Automatic counting was performed on an ImmunoSpot Series 5 UV Analyzer™ (CTL Europe GmbH, Aalen, Baden-Württemberg, DE) with customized software. From FFU counts in experimental wells, the mean of spot counts of negative control wells was subtracted (typically around 5 spots).

Huh7.5 cells [2] = test: Genetic stability, direct sequencing of complete ORF after passage; conditions: Table 2; ORF sequenced after passage to naïve cells
Procedure: RNA was extracted from cell culture supernatant using (Highly Pure Viral Nucleic Acid Kit™, Roche, Mannheim, Del.). RT-PCR was done using SuperScriptIII™ (Invitrogen, Carlsbad, Calif., USA). In 1st round PCR the Advantage 2 PCR Enzyme System was used. Cycle parameters were 35 s at 99° C., 30 s at 67° C. and 10 min (cycle 1-5), 11 min (cycle 6-15), 12 min (cycle 16-25) or 13 min (cycle 26-35) at 68° C. 12˜1 kb products were synthesized in overlapping nested PCRs covering the entire ORF using primer pairs as previously described. Primer pairs 8, 9 and 10 were modified to the genotype specific NS5A sequence (Table 20, SEQ ID NO 163-192). Cycle parameters were 35 s at 99° C. followed by 35 cycles with 35 s at 99° C., 30 s at 67° C. and 6 min at 68° C.
All sequence reactions were performed at Macrogen Inc., Seoul, South Korea. Sequence analysis was performed with Sequencher™ (Gene Codes Corporation) Vector NTI 11 (Invitrogen) and BioEdit™ (Tom Hall, Ibis Therapeutics). HCV sequences were retrieved from the European HCV database (euHCVdb; at the http: internet location //euhcvdb.ibcp.fr/euHCVdb/) and the Los Alamos HCV sequence database (LANL; at the http: Internet location //hcv.lanl.gov/content/hcv-db/index).
Genetic stability of NS5A recombinants after passage to naïve cells. Supernatant samples from transfection culture were passaged to naïve Huh7.5 cells and the complete ORF was sequenced after spread of infection in culture to check for further need of adaptation.

Huh7.5 cells [3] = test: HCV RNA titers by TaqMan real-time PCR; format: cell-based; conditions: for 1st passage Log(IU/mL): Table 1b, maximum HCV RNA titer, two values separated by slash = two independent passages
Procedure: as §1, §3

Huh7.5 cells [4] = test: Spread of infection in culture, anti-Core immunostaining; format: cell-based; conditions: Huh7.5 cells, after transfection of RNA transcripts
Procedure: as §2, §3

Row | Substance | Transfection Log(FFU/mL) (Huh7.5 cells [1]) | 1st passage Log(FFU/mL) (Huh7.5 cells [1]) | Peak titers Transfection Log (FFUs/mL) (Huh7.5 cells [1]) | Peak titers Viral passage Log (FFUs/mL) (Huh7.5 cells [1]) | Genetically stable (Huh7.5 cells [2]) | 1st passage Log(IU/mL) (Huh7.5 cells [3]) | Peak titers Viral passage Log (IU/mL) (Huh7.5 cells [3]; Table 2, maximum HCV RNA titer in all passage samples analyzed) | infectivity titers in 1st passage / after passage to naïve cells (Huh7.5 cells [1]; naïve Huh7.5 cells) | spread in culture / to the majority of culture, day after transfection (Huh7.5 cells [4]) [days]
1 | J4/JFH12996, 4827(J4-NS5A)3893: J4 Core-NS2/NS5A recombinant with T3893A, SEQ ID NO 48 | 2.5 Log(FFU/mL) | <2.3 Log(FFU/mL) | 2.5 Log (FFUs/mL) | <2.3 Log (FFUs/mL) | Yes |  |  |  | 
2 | J4/JFH12996, 4827(J4-NS5A): JFH1-based recombinant with Core-NS2 and NS5A of genotype 1b J4, SEQ ID NO 47 |  | 1.0 Log(FFU/mL) and 1.3 Log(FFU/mL) |  |  |  |  |  |  | 
3 | QC69/JFH12985(QC69-NS5A): JFH1-based recombinant with Core-NS2 and NS5A of genotype 7a QC69, SEQ ID NO 58 | 2.7 Log(FFU/mL) | 4.1 Log(FFU/mL) | 2.7 Log (FFUs/mL) | 4.1 Log (FFUs/mL) | Yes | 7.3 Log(IU/mL) | 7.3 Log (IU/mL) | above 10^3 FFU/mL | 
4 | S52/JFH12718, 4550(S52-NS5A)7625: S52 Core-NS2/NS5A recombinant with T7625C, SEQ ID NO 50 | 2.9 Log(FFU/mL) | 3.8 Log(FFU/mL) | 2.9 Log (FFUs/mL) | 3.8 Log (FFUs/mL) | Yes |  |  |  | 
5 | S52/JFH12718, 4550(S52-NS5A): JFH1-based recombinant with Core-NS2 and NS5A of genotype 3a S52, SEQ ID NO 49 | 2.1 Log(FFU/mL) and 2.4 Log(FFU/mL) | 3.1 Log(FFU/mL) |  |  |  | 7.0 Log(IU/mL) |  |  | 
6 | SA13/JFH1(SA13-NS5A): SA13 Core-NS2/NS5A recombinant without mutations adaptive for SA13/JFH1, SEQ ID NO 53 | 4.0 Log(FFU/mL) |  |  |  |  |  |  |  | 20
7 | SA13/JFH13405, 3696(SA13-NS5A)6284, 7604: SA13 Core-NS2/NS5A recombinant with A6275G and T7604C, SEQ ID NO 55 | 4.5 Log(FFU/mL) | 3.8 Log(FFU/mL) | 4.5 Log (FFUs/mL) | 3.8 Log (FFUs/mL) | Yes |  |  |  | 
